Test results from the NIST ThermoML archive (doi:10.1021/acs.jced.8b00132).
Values joined by “and” are separate entries in the source; they are usually repeats but may differ in a detail not shown here. Equal entries are not always repeated.

O=C(C(F)(F)C(F)(F)F)C(F)(C(F)(F)F)C(F)(F)F [dodecafluoro-2-methylpentan-3-one]
Details	thermal conductivity
387.99 K, 395 kPa, Gas, hot wire	0.0199 W/m/K
388 K, 395 kPa, Gas, hot wire	0.01971 W/m/K
388.06 K, 258 kPa, Gas, hot wire	0.01842 W/m/K
388.07 K, 128 kPa, Gas, hot wire	0.01819 W/m/K and 0.01818 W/m/K
388.08 K, 257 kPa, Gas, hot wire	0.01826 W/m/K
388.1 K, 26 kPa, Gas, hot wire	0.01771 W/m/K and 0.01756 W/m/K
388.1 K, 394 kPa, Gas, hot wire	0.01994 W/m/K
388.1 K, 395 kPa, Gas, hot wire	0.01983 W/m/K
388.18 K, 257 kPa, Gas, hot wire	0.01851 W/m/K
388.19 K, 128 kPa, Gas, hot wire	0.01818 W/m/K
388.19 K, 256 kPa, Gas, hot wire	0.0184 W/m/K
388.2 K, 128 kPa, Gas, hot wire	0.01804 W/m/K
388.2 K, 395 kPa, Gas, hot wire	0.01983 W/m/K
388.22 K, 394 kPa, Gas, hot wire	0.01966 W/m/K
388.23 K, 26 kPa, Gas, hot wire	0.01766 W/m/K and 0.0176 W/m/K
388.3 K, 256 kPa, Gas, hot wire	0.01853 W/m/K
388.31 K, 256 kPa, Gas, hot wire	0.01853 W/m/K
388.31 K, 396 kPa, Gas, hot wire	0.01994 W/m/K
388.32 K, 395 kPa, Gas, hot wire	0.01985 W/m/K
388.33 K, 127 kPa, Gas, hot wire	0.01792 W/m/K
388.33 K, 128 kPa, Gas, hot wire	0.01804 W/m/K
388.36 K, 26 kPa, Gas, hot wire	0.0176 W/m/K
388.37 K, 26 kPa, Gas, hot wire	0.01755 W/m/K
388.43 K, 254 kPa, Gas, hot wire	0.01861 W/m/K
388.43 K, 255 kPa, Gas, hot wire	0.01863 W/m/K
388.43 K, 396 kPa, Gas, hot wire	0.01991 W/m/K
388.45 K, 397 kPa, Gas, hot wire	0.01966 W/m/K
388.47 K, 127 kPa, Gas, hot wire	0.01796 W/m/K
388.48 K, 127 kPa, Gas, hot wire	0.0179 W/m/K
388.49 K, 516 kPa, Gas, transient hot wire	0.01836 W/m/K
388.5 K, 26 kPa, Gas, hot wire	0.01759 W/m/K
388.51 K, 26 kPa, Gas, hot wire	0.01751 W/m/K
388.53 K, 395 kPa, Gas, transient hot wire	0.01832 W/m/K
388.56 K, 254 kPa, Gas, hot wire	0.01874 W/m/K
388.56 K, 255 kPa, Gas, hot wire	0.01872 W/m/K
388.62 K, 127 kPa, Gas, hot wire	0.01791 W/m/K
388.62 K, 257 kPa, Gas, transient hot wire	0.01852 W/m/K
388.65 K, 26 kPa, Gas, hot wire	0.01756 W/m/K
388.66 K, 26 kPa, Gas, hot wire	0.01755 W/m/K
388.67 K, 515 kPa, Gas, transient hot wire	0.01836 W/m/K
388.68 K, 516 kPa, Gas, transient hot wire	0.01848 W/m/K
388.72 K, 394 kPa, Gas, transient hot wire	0.01847 W/m/K
388.73 K, 395 kPa, Gas, transient hot wire	0.01843 W/m/K
388.77 K, 619 kPa, Gas, transient hot wire	0.01829 W/m/K
388.79 K, 619 kPa, Gas, transient hot wire	0.0182 W/m/K
388.81 K, 257 kPa, Gas, transient hot wire	0.01868 W/m/K
388.82 K, 256 kPa, Gas, transient hot wire	0.01825 W/m/K
388.87 K, 514 kPa, Gas, transient hot wire	0.01853 W/m/K
388.93 K, 394 kPa, Gas, transient hot wire	0.01809 W/m/K and 0.01843 W/m/K
388.98 K, 619 kPa, Gas, transient hot wire	0.01836 W/m/K and 0.01835 W/m/K
389.04 K, 256 kPa, Gas, transient hot wire	0.01865 W/m/K
389.05 K, 256 kPa, Gas, transient hot wire	0.01868 W/m/K
389.08 K, 515 kPa, Gas, transient hot wire	0.01859 W/m/K
389.15 K, 395 kPa, Gas, transient hot wire	0.01856 W/m/K
389.19 K, 619 kPa, Gas, transient hot wire	0.01856 W/m/K and 0.01854 W/m/K
389.26 K, 256 kPa, Gas, transient hot wire	0.01862 W/m/K
389.27 K, 255 kPa, Gas, transient hot wire	0.0187 W/m/K
389.29 K, 513 kPa, Gas, transient hot wire	0.01867 W/m/K
389.29 K, 514 kPa, Gas, transient hot wire	0.01867 W/m/K
389.3 K, 67954 kPa, Liquid, transient hot wire	0.07227 W/m/K
389.31 K, 53809 kPa, Liquid, transient hot wire	0.06794 W/m/K
389.31 K, 53833 kPa, Liquid, transient hot wire	0.06806 W/m/K
389.31 K, 67979 kPa, Liquid, transient hot wire	0.0723 W/m/K
389.38 K, 396 kPa, Gas, transient hot wire	0.01859 W/m/K
389.38 K, 397 kPa, Gas, transient hot wire	0.01856 W/m/K
389.42 K, 40396 kPa, Liquid, transient hot wire	0.06362 W/m/K
389.42 K, 40406 kPa, Liquid, transient hot wire	0.06374 W/m/K
389.43 K, 67897 kPa, Liquid, transient hot wire	0.07231 W/m/K
389.43 K, 67923 kPa, Liquid, transient hot wire	0.07209 W/m/K
389.48 K, 29881 kPa, Liquid, transient hot wire	0.05966 W/m/K
389.5 K, 254 kPa, Gas, transient hot wire	0.01874 W/m/K
389.5 K, 53787 kPa, Liquid, transient hot wire	0.06829 W/m/K
389.51 K, 255 kPa, Gas, transient hot wire	0.01838 W/m/K
389.51 K, 53794 kPa, Liquid, transient hot wire	0.06804 W/m/K
389.53 K, 21435 kPa, Liquid, transient hot wire	0.05599 W/m/K
389.54 K, 21442 kPa, Liquid, transient hot wire	0.05607 W/m/K
389.56 K, 40379 kPa, Liquid, transient hot wire	0.06355 W/m/K
389.56 K, 40384 kPa, Liquid, transient hot wire	0.06363 W/m/K
389.57 K, 67853 kPa, Liquid, transient hot wire	0.07219 W/m/K
389.57 K, 67877 kPa, Liquid, transient hot wire	0.0722 W/m/K
389.58 K, 14725 kPa, Liquid, transient hot wire	0.05279 W/m/K
389.58 K, 14726 kPa, Liquid, transient hot wire	0.05278 W/m/K
389.63 K, 29870 kPa, Liquid, transient hot wire	0.05967 W/m/K
389.63 K, 29871 kPa, Liquid, transient hot wire	0.05964 W/m/K
